Laboratory results from ChEMBL document CHEMBL1201862, “PubChem BioAssay data set” (2004).
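Protocol summary: plate cells (96-well), add compound at 5 concentrations, incubate 48 h, interpolate endpoints linearly. GI50 = concentration required for 50% inhibition of growth.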 Active and inactive are the calls of the source. Rule as the data show it: active = GI50 up to about 1.1 µM and inactive = higher.

Columns and labels:
Assay in all cases: NCI anticancer screen, dose series, 48 h
UO-31 = test system: UO-31
SK-MEL-5 = test system: SK-MEL-5
UACC-62 = test system: UACC-62
OVCAR-5 = test system: OVCAR-5
A498 = test system: A498
DU-145 = test system: DU-145
MDA-MB-435 = test system: MDA-MB-435
LOX IMVI = test system: LOX IMVI
CAKI-1 = test system: CAKI-1
HT-29 = test system: HT-29
KM12 = test system: KM12
SN12C = test system: SN12C
U-251 = test system: U-251
CCRF-CEM = test system: CCRF-CEM
SF-539 = test system: SF-539
Malme-3M = test system: Malme-3M
HCT-15 = test system: HCT-15
NCI-H522 = test system: NCI-H522
MDA-N = test system: MDA-N
SK-MEL-28 = test system: SK-MEL-28

SMILES	GI50 (UO-31)	GI50 (SK-MEL-5)	GI50 (UACC-62)	GI50 (OVCAR-5)	GI50 (A498)	GI50 (DU-145)	GI50 (MDA-MB-435)	GI50 (LOX IMVI)	GI50 (CAKI-1)	GI50 (HT-29)	GI50 (KM12)	GI50 (SN12C)	GI50 (U-251)	GI50 (CCRF-CEM)	GI50 (SF-539)	GI50 (Malme-3M)	GI50 (HCT-15) [µM]	GI50 (NCI-H522)	GI50 (MDA-N)	GI50 (SK-MEL-28)
C=CCOC1(CC=C)C(=O)OC2C(O)COC21O (stereo not given)	> 100 µM (inactive)	> 100 µM (inactive)	> 100 µM (inactive)	> 100 µM (inactive)	> 100 µM (inactive)	> 100 µM (inactive)	> 100 µM (inactive)	> 100 µM (inactive)	> 100 µM (inactive)	> 100 µM (inactive)	> 100 µM (inactive)	> 100 µM (inactive)	> 100 µM (inactive)	> 100 µM (inactive)	> 100 µM (inactive)	> 100 µM (inactive)	> 100	> 100 µM (inactive)	> 100 µM (inactive)	> 100 µM (inactive)
Cc1ccc2[nH]c3c(c2c1)C1CCC(C(C)(C)C)CC1C1C(=O)N(c2ccc4c(c2)OCO4)C(=O)C31 (stereo not given)	2.55 µM (inactive)	8.15 µM (inactive)	10.8 µM (inactive)	3.61 µM (inactive)	1.83 µM (inactive)	2.99 µM (inactive)	7.21 µM (inactive)	2.4 µM (inactive)	2.3 µM (inactive)	4.51 µM (inactive)	5.25 µM (inactive)	2.24 µM (inactive)	2.1 µM (inactive)	1.82 µM (inactive)	1.35 µM (inactive)	2.23 µM (inactive)	5.21	2.67 µM (inactive)	5.41 µM (inactive)	5.61 µM (inactive)
